From PMC9861175, “Diversity and Biosynthetic Potential of Fungi Isolated from St. John’s Island, Singapore” (International Journal of Molecular Sciences, 2023)
Like-named read-outs stand apart in the source and are kept apart here.

Columns and labels:
[1] = system: C. albicans ATCC 10231; assay: Antifungal growth inhibition (OD) screen against C. albicans; type: cell-based; details: Candida albicans, read-out: IC50 CA
Procedure: (§1) Dried extracts were resuspended in MeOH to obtain 20 mg/mL sample concentration followed by sonication for complete solubilizing. Ten microliters (10 µL) of the extracts per well were added to 96-well plates followed by drying via centrifugal vacuum concentrator. Upon drying, 100 µL of 10% DMSO was added to each well to obtain a sample concentration of 2 mg/mL. Ten microliters (10 µL) were subsequently used for the antimicrobial bioassays where 90 µL of the respective microbial cultures were added to each sample, leading to a final extract concentration of 200 µg/mL. For preliminary screening, extracts from all 30 fungi were evaluated for antimicrobial activities using the highest concentration of 200 µg/mL.
For the C. albicans screen, a single colony from freshly streaked C. albicans on Sabouraud dextrose agar (SDA) was inoculated into 25-mL of Sabouraud liquid medium (SLM) and incubated at 35 °C with shaking at 150 rpm for 18 hrs. Subsequently, 1% of the culture (250 µL) was prepared with SLM and incubated at 35 °C with shaking for 6 h. OD600 was monitored until it reached approximately 0.8. Cell density (D) of the culture was calculated using the following equation: D = [(30 × OD600) − 8] × 10^6 CFU/mL. Final cell densities were adjusted to 2.5 × 10^5 CFU/mL and inoculated as 90 µL suspensions into 96-well plates. Similar to the antibacterial assays, upon addition of 10 µL of extracts to the cell suspensions, the plates were incubated at 37 °C for 20 h prior to OD readings. For each extract tested, three technical replicates were used. Amphotericin B was used as the antifungal standard control in C. albicans screen.

[2] = system: Staphylococcus aureus ATCC 25923; assay: Antibacterial broth microdilution growth inhibition (OD600) against S. aureus; type: cell-based; details: for IC50: read-out: IC50 SA
Procedure: as §1
(§2) For the antibacterial bioassays, the test microorganisms S. aureus, Methicillin-resistant S. aureus (MRSA) and E. coli were plated on Mueller-Hinton II agar (Merck, Germany) and incubated overnight at 37 °C. Colonies were added to a glass tube containing 0.85% saline solution until the turbidity was equivalent to 0.5 McFarland Standard (approximate cell density 1.5 × 10^8 CFU/mL). Cell suspensions were then diluted in MH2 liquid media to obtain a final cell density of 5 × 10^5 CFU/mL. Ninety microliters (90 µL) of cell suspensions were added to 10 µL of extracts in the 96-well bioassay plates and incubated at 37 °C for 20 h. For each extract tested, three replicates were used. The optical density (OD) of each well was measured using a Hidex Sense microplate reader (Hidex, Finland) at 600 nm. Percentage growth inhibition was calculated according to the following formula with the quality of the bioassay assessed based on the Z-prime analysis. A Z-prime of ≥0.7 indicates the robustness of the high throughput screening data. Gentamicin was used as the standard control against S. aureus and E. coli while vancomycin was used as the standard control in the MRSA assay.

[3] = system: Escherichia coli ATCC 25922; assay: Antibacterial broth microdilution growth inhibition (OD600) against E. coli; type: cell-based; details: read-out: IC50 EC
Procedure: as §1, §2

[4] = system: A549 human lung carcinoma cells ATCC CCL-185; assay: Cytotoxicity assay (PrestoBlue, 72 h) on A549 cells; type: cell-based; details: for IC50: Homo sapiens, read-out: IC50 A549
Procedure: The cytotoxic effect of the isolated compounds on the A549 human lung carcinoma cell line was determined as described previously. A549 cells at a concentration of 3.3 × 10^4 cells/mL in Dulbecco’s Modified Eagle Medium (DMEM, Gibco, Life Technologies, Bleiswijk, The Netherlands) were treated with isolated compounds at concentrations ranging from 0.1 μM to 200 μM and incubated for 72 h at 37 °C in 5% CO2 and 95% relative humidity. Cytotoxic effect of the compounds was measured after the addition of PrestoBlue™ cell viability reagent (Thermo Fisher Scientific, USA) and incubation for 2 h by reading of the plates’ fluorescence at an excitation wavelength of 560 nm and emission wavelength of 590 nm using the Tecan Infinite M1000 Pro reader. Puromycin served as the standard control.

[5] = system: Methicillin-resistant Staphylococcus aureus ATCC 33591; assay: Antibacterial broth microdilution growth inhibition (OD600) against MRSA; type: cell-based; details: 20 h
Procedure: as §1, §2

[6] = system: human hepatoma cell line; details: cited from earlier work
[7] = system: L5178Y mouse lymphoma cell line; design: method as in doi:10.1016/j.phytol.2014.12.010; details: cited from earlier work
[8] = mycotoxins associated with food spoilage; cited from earlier work
[9] = ATCC10231, isolated compounds, C. albicans ATCC 10231, 20 h
[10] = Staphylococcus aureus, ATCC25923, isolated compounds, S. aureus ATCC 25923, 20 h, 37 °C
[11] = ATCC25922, isolated compounds, E. coli ATCC 25922, 20 h, 37 °C
[12] = isolated compounds, A549 cells, 72 h
[13] = Staphylococcus aureus, isolated compounds, MRSA ATCC 33591, 37 °C, read-out: IC50 MRSA
[14] = Staphylococcus aureus, read-out: IC50 MRSA, isolated compounds, MRSA ATCC 33591, 37 °C
[15] = Staphylococcus aureus, ATCC25923, 20 h, isolated compounds, S. aureus ATCC 25923, 20 h, 37 °C
[16] = Staphylococcus aureus, read-out: IC50 MRSA

Row | Molecule | IC50 [1, 9] | IC50 [2, 10] | IC50 [3, 11] | IC50 [4, 12] | IC50 ([4]; A549, 72 h) | further results
1 | C[C@@H]1[C@H](O)[C@@H](C)/C=C/C=C/C=C/C=C/C=C/C=C/C=C/[C@H](O[C@@H]2O[C@H](C)[C@@H](O)[C@H](N)[C@@H]2O)C[C@@H]2O[C@](O)(C[C@@H](O)C[C@@H](O)[C@H](O)CC[C@@H](O)C[C@@H](O)CC(=O)O[C@H]1C)C[C@H](O)[C@H]2C(=O)O [Amphotericin B, reference compound] | 0.14 µM | – | – | – | – | –
2 | CNC(C)C1CCC(N)C(OC2C(N)CC(N)C(OC3OCC(C)(O)C(NC)C3O)C2O)O1 (stereo not shown) [Gentamicin, reference compound] | – | 0.22 µM | 0.67 µM | – | – | –
3 | COC(=O)c1ccccc1NC(=O)C(CC[S+](C)[O-])NC(=O)c1cnc2c(=O)n(C)c(=O)n(C)c2n1 (stereo not shown) [Penilumamide A] | > 200 µM | 88 µM | > 200 µM | 100 µM | – | cytotoxic activity against A549 cells (in words) ([4]; isolated compounds): weak; IC50 [5, 13]: > 200 µM; cytotoxicity activity against a human hepatoma cell line [6]: weak cytotoxicity activity; antimicrobial activity against S. aureus (in words) ([2]; isolated compounds): weak
4 | COC(=O)c1ccccc1NC(=O)C(CCSC)NC(=O)c1cnc2c(n1)c(=O)n(C)c(=O)n2C (stereo not shown) [Penilumamide B] | > 200 µM | > 200 µM | > 200 µM | 113 µM | – | IC50 [5, 13]: > 200 µM
5 | CC(NC(=O)c1cnc2c(n1)c(=O)n(C)c(=O)n2C)C(=O)Nc1ccccc1C(N)=O (stereo not shown) [Penilumamide D] | > 200 µM | > 200 µM | > 200 µM | > 200 µM | – | IC50 [5, 13]: > 200 µM; cytotoxicity activity against a human hepatoma cell line [6]: weak cytotoxicity activity
6 | COc1ccc(C2SSC34CC5(O)C(O)C=CC(O)C5ON3C(=O)C2N(C)C4=O)c(O)c1OC (stereo not shown) [Pretrichodermamide C] | > 200 µM | – | > 200 µM | – | > 200 µM | cytotoxic activity against A549 cells (in words) ([4]; isolated compounds): no cytotoxic activity; IC50 [5, 14]: < 50 µM; IC50 ([5]; read-out: IC50 MRSA, isolated compounds, MRSA ATCC 33591, 37 °C): 41.6 µM; activity against the L5178Y mouse lymphoma cell line [7]: inactive; IC50 [2, 15]: < 50 µM; IC50 ([2]; isolated compounds, S. aureus ATCC 25923, 20 h, 37 °C): 34.7 µM
7 | COc1ccc(C[C@H](N)C(=O)N[C@H]2[C@@H](O)[C@H](n3cnc4c(N(C)C)ncnc43)O[C@@H]2CO)cc1 [Puromycin, reference compound] | – | – | – | 0.25 µM | – | –
8 | CN[C@H](CC(C)C)C(=O)N[C@H]1C(=O)N[C@@H](CC(N)=O)C(=O)N[C@H]2C(=O)N[C@H]3C(=O)N[C@H](C(=O)N[C@H](C(=O)O)c4cc(O)cc(O)c4-c4cc3ccc4O)[C@H](O)c3ccc(c(Cl)c3)Oc3cc2cc(c3O[C@@H]2O[C@H](CO)[C@@H](O)[C@H](O)[C@H]2O[C@H]2C[C@](C)(N)[C@H](O)[C@H](C)O2)Oc2ccc(cc2Cl)[C@H]1O [Vancomycin, reference compound] | – | – | – | – | – | IC50 [5, 16]: 1.5 µM
9 | COC1=C(c2c(OC)cc3cc4c(c(O)c3c2O)C(=O)OC(C)C4)C(=O)c2c(cc3c(c2O)C(=O)OC(C)C3)C1=O (stereo not shown) [Viomellein] | 17.9 µM | – | > 100 µM | – | 42 µM | IC50 [5, 14]: 2.9 µM; IC50 [2, 15]: 3.2 µM; liver and kidney damage in animals [8]: known to cause liver and kidney damage in animals
10 | COc1cc2cc3c(c(O)c2c(O)c1-c1c(OC)cc2cc4c(c(O)c2c1O)C(=O)O[C@H](C)C4)C(=O)O[C@H](C)C3 [Vioxanthin] | – | – | – | – | 77.1 µM | IC50 [5, 16]: 1.6 µM; IC50 ([2]; Staphylococcus aureus, ATCC25923, 20 h): 3 µM; liver and kidney damage in animals [8]: known to cause liver and kidney damage in animals; IC50 ([1]; ATCC10231, 20 h): 36.4 µM; IC50 ([3]; ATCC25922, 20 h): > 200 µM
11 | COC1=C(C2=C(OC)C(=O)c3cc4c(c(O)c3C2=O)C(=O)OC(C)C4)C(=O)c2c(cc3c(c2O)C(=O)OC(C)C3)C1=O (stereo not shown) [Xanthomegnin] | 18.6 µM | – | > 200 µM | – | 65.6 µM | IC50 [5, 14]: 35.3 µM; IC50 [2, 15]: 19.2 µM; liver and kidney damage in animals [8]: known to cause liver and kidney damage in animals
12 | Penilumamide E | – | – | – | – | – | cytotoxicity activity against a human hepatoma cell line [6]: weak cytotoxicity activity
